Test results taken from patent publication US6664231B1, “Anti-fungal peptides” (priority 1993, dated 2003).
Square brackets hold non-standard residues; d marks the D form. Ends that are not written are not given here. Peptide text beside a SMILES is read from it. Phe(4-NH2) = Nc1ccc(C[C@H](N)C(=O)O)cc1; 1Nal = N[C@@H](Cc1cccc2ccccc12)C(=O)O; pGlu = O=C1CC[C@@H](C(=O)O)N1; GABA = NCCCC(=O)O; βAla = NCCC(=O)O

System: C. albicans (CA-1, Strain SLU-1)
Assay: Radial diffusion assay
Type: cell-based, Candida albicans
Settings: HPLC-purified peptide; nanomoles required to achieve a net 30 mm^2 zone (log titration curve)
Description: In the radial diffusion assay procedures, the CA-1 cultures and peptide solutions were prepared as in the broth assay procedure described above. Ten mL of molten underlayer agarose comprising 3% Sabouraud Dextrose broth, 1% agarose (Pharmacia, Piscataway, N.J.), 0.02% Tween 20, and 10 mM sodium phosphate at pH 7.4, was added to polystyrene tubes and maintained in a 56° C. water bath until the addition of yeast. Tubes were cooled to approximately 45° C., yeast were added to give a final concentration of 1×10^6 CFU/mL, and the tubes were mixed again by inverting. The contents were poured into level square petri dishes and distributed evenly. […] A series of wells were punched into the hardened agarose using a sterile 3 mm punch attached to a vacuum apparatus.
Peptides to be assayed were 2-fold serially diluted in Dulbecco's PBS (D-PBS) starting from a concentration of approximately 1 mg/mL. Five μL of each dilution were added to each well and the plates were incubated at 37° C. for 3 hours. An overlayer of 10 mL of molten agarose comprising 6% Sabouraud Dextrose broth, 1% agarose, and 10 mM sodium phosphate, pH 7.4, (at approximately 45° C.) was then added and plates were incubated overnight at 37° C. Following this overnight incubation, a dilute Coomassie solution was poured into the plates and allowed to stain for 24 hours.
Clear zones of growth inhibition around each well were measured with calipers. The actual area of growth inhibition (mm^2) was calculated by subtracting the area of the well. Table 1 below sets out the results of the radial diffusion assays for tested peptides in terms of the number of picomoles (pmol) of peptide required to establish a 30 mm^2 area of growth inhibition calculated by PROBIT analysis (e.g., calculated from regression of the linear portion of log-concentration dose-response curve, log pmol/well vs. net area of inhibition).

Compound	Plate Assay (nmol), pure peptide activity [nmol]
CC[C@H](C)[C@H](NC(=O)[C@H](CC(C)C)NC(=O)[C@@H](N)Cc1c[nH]c2ccccc12)C(=O)N[C@@H](CCC(N)=O)C(=O)N[C@@H](CC(C)C)C(=O)N[C@@H](Cc1ccccc1)C(=O)N[C@@H](Cc1c[nH]cn1)C(=O)N[C@@H](CCCCN)C(=O)N[C@@H](CCCCN)C(N)=O [Peptide 298]	1.106
H-KWLIQLFH-NH2 [Peptide 302]	2.07
H-SKVKWLIQLFHKK-NH2 [Peptide 284]	0.373

Same assay, conditions: crude peptide; nanomoles required to achieve a net 30 mm^2 zone (log titration curve)

Compound	Plate Assay (nmol), crude peptide activity [nmol]
CC[C@H](C)[C@H](NC(=O)[C@H](CC(C)C)NC(=O)[C@@H](N)Cc1c[nH]c2ccccc12)C(=O)N[C@@H](CCC(N)=O)C(=O)N[C@@H](CC(C)C)C(=O)N[C@@H](Cc1ccccc1)C(=O)N[C@@H](Cc1c[nH]cn1)C(=O)N[C@@H](CCCCN)C(=O)N[C@@H](CCCCN)C(N)=O [Peptide 298]	2.628
H-KVKWLIQLFH-NH2 [Peptide 291]	>5.039
H-KWLIQLFH-NH2 [Peptide 302]	>5.497
H-SKVKWLIQLFHKK-NH2 [Peptide 284]	1.460
H-SKVKWLIQL-NH2 [Peptide 294]	>4.634

Same assay, conditions: pmoles of peptide added to well to achieve a 30 mm^2 zone, PROBIT analysis; crude or purified (P′) peptide

Compound	C. albicans pmol/30 mm^2 zone
H-KSKVGWLIFLFHKK-NH2 [XMP.91]	>3844 pmol/30 mm^2 zone
CC[C@H](C)[C@H](NC(=O)[C@H](CC(C)C)NC(=O)[C@H](Cc1cccc2ccccc12)NC(=O)[C@H](CCCCN)NC(=O)[C@@H](NC(=O)[C@H](CCCCN)NC(=O)[C@H](CO)NC(=O)[C@@H](N)CCCCN)C(C)C)C(=O)N[C@@H](CCC(N)=O)C(=O)N[C@@H](CC(C)C)C(=O)N[C@@H](Cc1ccccc1)C(=O)N[C@@H](Cc1c[nH]cn1)C(=O)N[C@@H](CCCCN)C(=O)N[C@@H](CCCCN)C(N)=O [XMP.116] (H-KSKVK[1Nal]LIQLFHKK-NH2)	670 pmol/30 mm^2 zone
H-KSKVGWLINLFHKK-NH2 [XMP.262]	984 pmol/30 mm^2 zone
H-KSKVKWLIKLFHKK-NH2 [XMP.100]	462 pmol/30 mm^2 zone
H-WLIQLKK-NH2 [XMP.322]	3,488 pmol/30 mm^2 zone
CC[C@H](C)[C@H](NC(=O)[C@H](CC(C)C)NC(=O)[C@H](Cc1c[nH]c2ccccc12)NC(=O)CNC(=O)[C@@H](NC(=O)[C@H](CCCCN)NC(=O)[C@H](CO)NC(=O)[C@@H](N)CCCCN)C(C)C)C(=O)N[C@@H](Cc1ccc(N)cc1)C(=O)N[C@@H](CC(C)C)C(=O)N[C@@H](Cc1ccccc1)C(=O)N[C@@H](Cc1cccc2ccccc12)C(=O)N[C@@H](CCCCN)C(=O)N[C@@H](CCCCN)C(N)=O [XMP.232] (H-KSKVGWLI[Phe(4-NH2)]LF[1Nal]KK-NH2)	b (No detectable activity up to 5 μg/well)
H-SKVKWLIQ-NH2 [XMP.299]	>8,768 pmol/30 mm^2 zone
H-KSKVLWLIQLFHKK-NH2 [XMP.85]	>1881 pmol/30 mm^2 zone
H-KSKVGWLIQLFHKW-NH2 [XMP.108]	>3219 pmol/30 mm^2 zone
CC[C@H](C)[C@H](NC(=O)[C@H](CC(C)C)NC(=O)[C@H](Cc1cccc2ccccc12)NC(=O)[C@H](Cc1ccc(N)cc1)NC(=O)[C@@H](NC(=O)[C@H](CCCCN)NC(=O)[C@H](CO)NC(=O)[C@@H](N)CCCCN)C(C)C)C(=O)N[C@@H](CCC(N)=O)C(=O)N[C@@H](CC(C)C)C(=O)N[C@@H](Cc1ccccc1)C(=O)N[C@@H](Cc1c[nH]cn1)C(=O)N[C@@H](CCCCN)C(=O)N[C@@H](CCCCN)C(N)=O [XMP.225] (H-KSKV[Phe(4-NH2)][1Nal]LIQLFHKK-NH2)	>2,506 pmol/30 mm^2 zone
H-SKVKWLIQLFHK-NH2 [XMP.285]	>3,024 pmol/30 mm^2 zone
H-KSKVGILIQLFHKK-NH2 [XMP.251]	1,289 pmol/30 mm^2 zone
CC[C@H](C)[C@H](NC(=O)[C@H](CC(C)C)NC(=O)CCNC(=O)CNC(=O)[C@@H](NC(=O)[C@H](CCCCN)NC(=O)[C@H](CO)NC(=O)[C@@H](N)CCCCN)C(C)C)C(=O)N[C@@H](CCC(N)=O)C(=O)N[C@@H](CC(C)C)C(=O)N[C@@H](Cc1ccccc1)C(=O)N[C@@H](Cc1c[nH]cn1)C(=O)N[C@@H](CCCCN)C(=O)N[C@@H](CCCCN)C(N)=O [XMP.254] (H-KSKVG[βAla]LIQLFHKK-NH2)	1,040 pmol/30 mm^2 zone
CC[C@H](C)[C@H](NC(=O)[C@H](CC(C)C)NC(=O)[C@H](Cc1ccc(N)cc1)NC(=O)[C@H](CCCCN)NC(=O)[C@@H](N)CCCCN)C(=O)N[C@@H](CCC(N)=O)C(=O)N[C@@H](CC(C)C)C(=O)N[C@@H](CCCCN)C(=O)N[C@@H](CCCCN)C(N)=O [XMP.346] (H-KK[Phe(4-NH2)]LIQLKK-NH2)	640 pmol/30 mm^2 zone
CC[C@H](C)[C@H](NC(=O)[C@H](CC(C)C)NC(=O)[C@H](Cc1c[nH]c2ccccc12)NC(=O)CNC(=O)[C@@H](NC(=O)[C@H](CCCCN)NC(=O)[C@H](CO)NC(=O)[C@@H](N)CCCCN)C(C)C)C(=O)N[C@@H](CCC(N)=O)C(=O)N[C@@H](CC(C)C)C(=O)N[C@@H](Cc1ccccc1)C(=O)N[C@@H](Cc1c[nH]cn1)C(=O)N[C@@H](CCCCN)C(=O)N[C@@H](Cc1cccc2ccccc12)C(N)=O [XMP.111] (H-KSKVGWLIQLFHK[1Nal]-NH2)	>2809 pmol/30 mm^2 zone
CC[C@H](C)[C@H](NC(=O)[C@H](CC(C)C)NC(=O)CCCNC(=O)CNC(=O)[C@@H](NC(=O)[C@H](CCCCN)NC(=O)[C@H](CO)NC(=O)[C@@H](N)CCCCN)C(C)C)C(=O)N[C@@H](CCC(N)=O)C(=O)N[C@@H](CC(C)C)C(=O)N[C@@H](Cc1ccccc1)C(=O)N[C@@H](Cc1c[nH]cn1)C(=O)N[C@@H](CCCCN)C(=O)N[C@@H](CCCCN)C(N)=O [XMP.256] (H-KSKVG[GABA]LIQLFHKK-NH2)	b (No detectable activity up to 5 μg/well)
XMP.382: K - K - L - L - Q - L - L - K - K (SEQ ID NO:213) (KKLLQLLKK)	1,437 pmol/30 mm^2 zone
XMP.380: K - K - Q - L - L - L - L - K - K (SEQ ID NO:211) (KKQLLLLKK)	886 pmol/30 mm^2 zone
H-KSKVGWLILLFHKKKSKVGWLIQLFHKK-NH2 [XMP.270]	>722 pmol/30 mm^2 zone
H-KSKVGWLITLFHKK-NH2 [XMP.106]	1032 pmol/30 mm^2 zone
H-LIQLFH-NH2 [XMP.317]	b (No detectable activity up to 5 μg/well)
XMP.341: PYR - PYR - 153-157 - PYR - PYR (SEQ ID NO:172) ([pGlu][pGlu]WLIQL[pGlu][pGlu]; not fully specified; printed as PYR - PYR - 153-157 - PYR - PYR)	b (No detectable activity up to 5 μg/well)
H-KWLIQL-NH2 [XMP.315]	>5,069 pmol/30 mm^2 zone
H-KSKVKALIQLFHKK-NH2 [XMP.161]	>2999 pmol/30 mm^2 zone
H-VKWLIQLF-NH2 [XMP.301]	b (No detectable activity up to 5 μg/well)
H-KSKVGWLIQLFFKK-NH2 [XMP.94]	>923 pmol/30 mm^2 zone
H-KSKVGWLIQLWHKK-NH2 [XMP.82]	518 pmol/30 mm^2 zone
CC[C@H](C)[C@H](NC(=O)[C@H](CC(C)C)NC(=O)[C@H](Cc1c[nH]c2ccccc12)NC(=O)[C@@H](N)CCCCN)C(=O)N[C@@H](CCC(N)=O)C(=O)N[C@@H](CC(C)C)C(=O)N[C@@H](Cc1ccccc1)C(=O)N[C@@H](Cc1c[nH]cn1)C(=O)N[C@@H](CCCCN)C(N)=O [XMP.297]	1,817 pmol/30 mm^2 zone
CC[C@H](C)[C@H](NC(=O)[C@H](CC(C)C)NC(=O)[C@H](Cc1cccc2ccccc12)NC(=O)CNC(=O)[C@@H](NC(=O)[C@H](CCCCN)NC(=O)[C@H](CO)NC(=O)[C@@H](N)CCCCN)C(C)C)C(=O)N[C@@H](Cc1ccc(N)cc1)C(=O)N[C@@H](CC(C)C)C(=O)N[C@@H](Cc1ccccc1)C(=O)N[C@@H](Cc1c[nH]cn1)C(=O)N[C@@H](CCCCN)C(=O)N[C@@H](CCCCN)C(N)=O [XMP.224] (H-KSKVG[1Nal]LI[Phe(4-NH2)]LFHKK-NH2)	>2,443 pmol/30 mm^2 zone
CC[C@H](C)[C@H](NC(=O)[C@H](CC(C)C)NC(=O)[C@H](Cc1c[nH]c2ccccc12)NC(=O)CNC(=O)[C@@H](NC(=O)[C@H](CCCCN)NC(=O)[C@H](CO)NC(=O)[C@@H](N)CCCCN)C(C)C)C(=O)N[C@@H](CCC(N)=O)C(=O)N[C@@H](CC(C)C)C(=O)N[C@@H](Cc1ccccc1)C(=O)N[C@@H](Cc1cccc2ccccc12)C(=O)N[C@@H](CCCCN)C(=O)N[C@@H](Cc1cccc2ccccc12)C(N)=O [XMP.146] (H-KSKVGWLIQLF[1Nal]K[1Nal]-NH2)	b (No detectable activity up to 5 μg/well)

Same assay, conditions: pmoles of peptide added to well to achieve a 30 mm^2 zone, PROBIT analysis; crude or purified (P′) peptide; listed as XMP.225P′

Compound	C. albicans pmol/30 mm^2 zone
CC[C@H](C)[C@H](NC(=O)[C@H](CC(C)C)NC(=O)[C@H](Cc1cccc2ccccc12)NC(=O)[C@H](Cc1ccc(N)cc1)NC(=O)[C@@H](NC(=O)[C@H](CCCCN)NC(=O)[C@H](CO)NC(=O)[C@@H](N)CCCCN)C(C)C)C(=O)N[C@@H](CCC(N)=O)C(=O)N[C@@H](CC(C)C)C(=O)N[C@@H](Cc1ccccc1)C(=O)N[C@@H](Cc1c[nH]cn1)C(=O)N[C@@H](CCCCN)C(=O)N[C@@H](CCCCN)C(N)=O [XMP.225] (H-KSKV[Phe(4-NH2)][1Nal]LIQLFHKK-NH2)	>2,736 pmol/30 mm^2 zone

Same assay, conditions: pmoles of peptide added to well to achieve a 30 mm^2 zone, PROBIT analysis; crude or purified (P′) peptide; listed as XMP.297P′

Compound	C. albicans pmol/30 mm^2 zone [pmol/30 mm^2 zone]
CC[C@H](C)[C@H](NC(=O)[C@H](CC(C)C)NC(=O)[C@H](Cc1c[nH]c2ccccc12)NC(=O)[C@@H](N)CCCCN)C(=O)N[C@@H](CCC(N)=O)C(=O)N[C@@H](CC(C)C)C(=O)N[C@@H](Cc1ccccc1)C(=O)N[C@@H](Cc1c[nH]cn1)C(=O)N[C@@H](CCCCN)C(N)=O [XMP.297]	564

Same assay, conditions: pmoles of peptide added to well to achieve a 30 mm^2 zone, PROBIT analysis; crude or purified (P′) peptide; listed as XMP.315P′

Compound	C. albicans pmol/30 mm^2 zone
H-KWLIQL-NH2 [XMP.315]	>12,853 pmol/30 mm^2 zone
